From patent publication US4126616A, “N-propylnorapomorphine diesters” (Hinshaw; William B., priority 1976, dated 1978) come the findings set out here.

Where two headings read alike, the source gives them in different places.

The experiment relates to caudate lesioned mouse. Kind of experiment: caudate lesioned mouse test (anti-parkinson activity). Format: in vivo. The note with it: for ED50: caudate lesioned mouse; for responders at 26 µmol/kg: dose 0.026 m. mole/kg; for responders at 94 µmol/kg: dose 0.094 m. mole/kg. Here is the method: An index of anti-parkinson activity was determined using the caudate lesioned mouse test described by Lotti, Life Sci., 10, 781-789 (1971). The mice having unilateral lesions of the caudate nucleus prepared according to the method of Lotti supra were observed immediately after the surgical procedure for strong postural asymmetries directed to the same side as the lesion. When this asymmetry was not observed, the mice were discarded. Operated mice were allowed at least 14 days to recover prior to drug testing. The lesioned mice were tested with apomorphine using 1.7 mg./kg. of base administered intraperitoneally in a 1% suspension in gum tragacanth. […] Only those mice which twisted or circled toward the lesioned side in all three test periods after the apomorphine injection were retained for further drug testing. The test drugs were all administered in 1% gum tragacanth suspension in a volume of 0.1 ml./10 g. of body weight. Doses were expressed in mg./kg. of free base.
Results of tests in the caudate lesioned mouse test described above which were obtained on the compounds of the invention are given in the table below identified, in each case, by the example numbers above where their preparations are described. Corresponding data for reference apomorphine diesters described in German patent application No. 2,154,162 are given in a side-by-side relationship for a number of the species. The reference compounds, designated Ref. 1, Ref. 1B, Ref. 1C, Ref. 1D, Ref. 1E, Ref. 1F, Ref. 2 and Ref. 2A correspond, respectively, to the compounds of the invention identified by Examples 1, 1B, 1C, 1D, 1E, 1F, 2 and 2A and differ from the latter only in having a methyl group on the apomorphine nitrogen from instead of an n-propyl group as present in the instant compounds.

[1] abbreviates: Mus musculus, 0.5 h, dose 0.208 m. mole/kg, 1/2 h post-drug, read-out: No. Mice Affected/No. Mice Tested, 1/2 h (converted).
Setting [2] is: Mus musculus, 0.5 h, dose 0.416 m. mole/kg, 1/2 h post-drug, read-out: No. Mice Affected/No. Mice Tested, 1/2 h (converted).
Where [3] appears, read: Mus musculus, dose 0.208 m. mole/kg, 1 h post-drug, read-out: No. Mice Affected/No. Mice Tested, 1 h.
The mark [4] stands for this setting: Mus musculus, dose 0.208 m. mole/kg, 4 h post-drug, read-out: No. Mice Affected/No. Mice Tested, 4 h (converted).
The mark [5] stands for this setting: Mus musculus, dose 0.208 m. mole/kg, 6 h post-drug, read-out: No. Mice Affected/No. Mice Tested, 6 h (converted).
The mark [6] stands for this setting: Mus musculus, dose 0.208 m. mole/kg, 24 h post-drug, read-out: No. Mice Affected/No. Mice Tested, 24 h (converted).
Where [7] appears, read: Mus musculus, dose 0.208 m. mole/kg, total, read-out: No. Mice Affected/No. Mice Tested, Total (converted).
Setting [8] is: Mus musculus, dose 0.416 m. mole/kg, 1 h post-drug, read-out: No. Mice Affected/No. Mice Tested, 1 h (converted).
The mark [9] stands for this setting: Mus musculus, dose 0.416 m. mole/kg, 4 h post-drug, read-out: No. Mice Affected/No. Mice Tested, 4 h (converted).
The mark [10] stands for this setting: Mus musculus, dose 0.416 m. mole/kg, 6 h post-drug, read-out: No. Mice Affected/No. Mice Tested, 6 h (converted).
The mark [11] stands for this setting: Mus musculus, dose 0.416 m. mole/kg, 24 h post-drug, read-out: No. Mice Affected/No. Mice Tested, 24 h.
Where [12] appears, read: Mus musculus, dose 0.416 m. mole/kg, total, read-out: No. Mice Affected/No. Mice Tested, Total (converted).
The mark [13] stands for this setting: Mus musculus, 0.5 h, 1/2 h post-drug, read-out: No. Mice Affected/No. Mice Tested, 1/2 h (converted).
[14] abbreviates: Mus musculus, 1 h post-drug, read-out: No. Mice Affected/No. Mice Tested, 1 h (converted).
The mark [15] stands for this setting: Mus musculus, 2 h post-drug, read-out: No. Mice Affected/No. Mice Tested, 2 h (converted).
Setting [16] is: Mus musculus, 4 h post-drug, read-out: No. Mice Affected/No. Mice Tested, 4 h (converted).
Setting [17] is: Mus musculus, 6 h post-drug, read-out: No. Mice Affected/No. Mice Tested, 6 h (converted).
Where [18] appears, read: Mus musculus, 24 h post-drug, read-out: No. Mice Affected/No. Mice Tested, 24 h.
Setting [19] is: Mus musculus, total, read-out: No. Mice Affected/No. Mice Tested, Total (converted).
Setting [20] is: Mus musculus, 0.5 h, read-out: No. Mice Affected/No. Mice Tested, 1/2 h.
Setting [21] is: Mus musculus, 1 h, read-out: No. Mice Affected/No. Mice Tested, 1 h.
Where [22] appears, read: Mus musculus, 4 h, read-out: No. Mice Affected/No. Mice Tested, 4 h.
[23] abbreviates: Mus musculus, 6 h, read-out: No. Mice Affected/No. Mice Tested, 6 h.
Where [24] appears, read: Mus musculus, 24 h, read-out: No. Mice Affected/No. Mice Tested, 24 h.
[25] abbreviates: Mus musculus, read-out: No. Mice Affected/No. Mice Tested, Total.

`CCCCCCCCCCCCCCCC(=O)Oc1ccc2c(c1OC(=O)CCCCCCCCCCCCCCC)-c1cccc3c1C(C2)N(C)CC3` (centres unmarked) [Ref. 1D, reference compound]: the responders at 208 µmol/kg reads like this: under setting [1], 0%; under setting [3], 0%; under setting [4], 0%; under setting [5], 0%; under setting [6], 0%; under setting [7], 0%. The responders at 416 µmol/kg by setting is: under setting [2], 0%; under setting [8], 0%; under setting [9], 0%; under setting [10], 0%; under setting [11], 0%; under setting [12], 0%.

As to `CCCN1CCc2cccc3c2C1Cc1ccc(OC(=O)c2ccc(C)cc2)c(OC(=O)c2ccc(C)cc2)c1-3` (centres unmarked) [Ex. 1H, N-Propylnorapomorphine bis-4-methylbenzoate], the ED50 (ED50, read-out: ED50) turned out to be 70 µmol/kg. Moreover, the responders at 26 µmol/kg is 0% under setting [13]; 0% under setting [14]; 0% under setting [15]; 0% under setting [16]; 0% under setting [17]; 0% under setting [18]. In addition, the responders at 26 µmol/kg under setting [19] was 0%. In addition, the responders at 94 µmol/kg under setting [13] was 100%; the responders at 94 µmol/kg under setting [14] was 75%; the responders at 94 µmol/kg under setting [15] is 75%; the responders at 94 µmol/kg under setting [16] is 75%; the responders at 94 µmol/kg under setting [17] is 75%; the responders at 94 µmol/kg (Mus musculus, 24 h post-drug, read-out: No. Mice Affected/No. Mice Tested, 24 h (converted)) is 75%. Also, under setting [19], the responders at 94 µmol/kg is 100%.

Consider `CN1CCc2cccc3c2C1Cc1ccc(OC(=O)c2ccc(Cl)cc2)c(OC(=O)c2ccc(Cl)cc2)c1-3` (centres unmarked) [Ref. 1F, reference compound], for which the responders at 416 µmol/kg is, setting by setting: under setting [2], 0%; under setting [8], 0%; under setting [9], 0%; under setting [10], 0%; under setting [11], 0%; under setting [12], 0%.

With `CN1CCc2cccc3c2C1Cc1ccc(OC(=O)c2ccccc2)c(OC(=O)c2ccccc2)c1-3` (centres unmarked) [Ref. 1E, reference compound], the responders at 416 µmol/kg runs as follows: under setting [2], 0%; under setting [8], 0%; under setting [9], 0%; under setting [10], 0%; under setting [11], 0%; under setting [12], 0%.

On to `CC(=O)Oc1ccc2c(c1OC(C)=O)-c1cccc3c1C(C2)N(C)CC3` (centres unmarked) [Ref. 2, reference compound], for which the responders at 208 µmol/kg runs as follows: under setting [20], 0%; under setting [21], 0%; under setting [22], 0%; under setting [23], 0%; under setting [24], 25%; under setting [25], 25%. For the same molecule, the responders at 416 µmol/kg reads like this: under setting [20], 25%; under setting [21], 50%; under setting [22], 75%; under setting [23], 75%; under setting [24], 25%; under setting [25], 75%.

For the molecule `CCCN1CCc2cccc3c2C1Cc1ccc(O)c(O)c1-3` (centres unmarked) [N-propylnorapomorphine], the ED50 (Mus musculus, po, read-out: ED50, on oral administration, oral) stood at 3.2 µmol/kg.

Take `CCCCC(=O)Oc1ccc2c(c1OC(=O)CCCC)-c1cccc3c1C(C2)N(C)CC3` (centres unmarked) [Ref. 2A, reference compound]: the responders at 208 µmol/kg under setting [1] is 0%; the responders at 208 µmol/kg under setting [3] amounted to 0%; the responders at 208 µmol/kg under setting [4] was 0%; the responders at 208 µmol/kg under setting [5] was 0%; the responders at 208 µmol/kg under setting [6] is 0%; the responders at 208 µmol/kg under setting [7] is 0%. Further, the responders at 416 µmol/kg is, setting by setting: under setting [2], 33.3%; under setting [8], 0%; under setting [9], 0%; under setting [10], 0%; under setting [11], 0%; under setting [12], 33.3%.

Consider `CCCN1CCc2cccc3c2C1Cc1ccc(OC(=O)C(C)(C)C)c(OC(=O)C(C)(C)C)c1-3` (centres unmarked) [Ex. 1C, N-Propylnorapomorphine dipivaloate], for which the responders at 26 µmol/kg under setting [13] was 0%; the responders at 26 µmol/kg under setting [14] was 0%; the responders at 26 µmol/kg under setting [16] is 100%; the responders at 26 µmol/kg under setting [17] is 100%; the responders at 26 µmol/kg under setting [18] stood at 0%; the responders at 26 µmol/kg under setting [19] is 100%. The “Molar Potency Ratio Claimed/Ref. Ester” value (claimed N-propyl ester vs corresponding N-methyl reference ester) was ≥ 16.
